Values of other authors in patent US9434994B2, “Methods for prediction of clinical outcome to epidermal growth factor receptor inhibitors by non-small cell lung cancer patients” (The Regents of the University of Colorado, a body corporate, priority 2004, dated 2016).

Key:
[1] = system: NSCLC patients; conditions: erlotinib versus placebo, second or third line; cited from earlier work
[2] = system: chemotherapy resistant NSCLC patients; conditions: single agent; cited from earlier work
[3] = system: advanced BAC patients; conditions: cited from earlier work

## C#Cc1cccc(Nc2ncnc3cc(OCCOC)c(OCCOC)cc23)c1 [erlotinib]
[1]
  Hazard Ratio, survival: 0.73
[2]
  response rates: about 10%

## CC(=O)O[C@H]1C(=O)[C@@]2(C)[C@H]([C@H](OC(=O)c3ccccc3)[C@]3(O)C[C@H](OC(=O)[C@H](O)[C@@H](NC(=O)c4ccccc4)c4ccccc4)C(C)=C1C3(C)C)[C@]1(OC(C)=O)CO[C@@H]1C[C@@H]2O [paclitaxel]
[3]
  Median Survival: 12 months
